Laboratory results reported in paper PMC10348020, “Carbonic anhydrase inhibitory activity of phthalimide-capped benzene sulphonamide derivatives” (Journal of Enzyme Inhibition and Medicinal Chemistry, 2023).
Entries after “also recorded” stand apart in the source; their conditions may differ.

Legend:
dengue viral protease = tested on: dengue viral protease; design: method as in PMID 26247308; details: previously reported by the group; cited from earlier work
hCA I = molecular target: T1, hCA I (Homo sapiens, UniProt P00915); experiment: stopped-flow CO2 hydrase assay, hCA I; type: biochemical; details: for Ki: stopped-flow CO2 hydrase assay, mean from three different assays, errors ± 5–10%; for hCA I inhibition (in words): stopped-flow assay
T1 construct: hCA isoenzymes I and II used in these experiments were obtained, as earlier reported by our groups
T1 sequence (P00915 whole entry): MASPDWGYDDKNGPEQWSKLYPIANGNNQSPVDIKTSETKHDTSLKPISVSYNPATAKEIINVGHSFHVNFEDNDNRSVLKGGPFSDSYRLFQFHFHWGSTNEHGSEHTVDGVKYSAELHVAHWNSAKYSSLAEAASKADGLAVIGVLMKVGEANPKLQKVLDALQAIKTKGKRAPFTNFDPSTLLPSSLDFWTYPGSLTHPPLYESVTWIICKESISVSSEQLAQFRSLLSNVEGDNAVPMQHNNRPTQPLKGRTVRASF
Method: (§1) The CA isoenzyme assay was performed using a stopped-flow Applied Photophysics (SX.18V-R; Oxford, UK) instrument using Khalifah’s technique. hCA isoenzymes I and II used in these experiments were obtained, as earlier reported by our groups.

hCA II = molecular target: T2, hCA II (Homo sapiens, UniProt P00918); experiment: stopped-flow CO2 hydrase assay, hCA II; type: biochemical; details: for Ki: stopped-flow CO2 hydrase assay, mean from three different assays, errors ± 5–10%; for hCA II inhibition (in words): stopped-flow assay
T2 construct: hCA isoenzymes I and II used in these experiments were obtained, as earlier reported by our groups
Method: as §1

Row | Compound | Ki (hCA I) | Ki (hCA II) | dengue viral protease inhibition (in words) (dengue viral protease) | hCA I inhibition (in words) (hCA I) | hCA II inhibition (in words) (hCA II)
1 | NS(=O)(=O)c1ccc(N2C(=O)c3ccccc3C2=O)cc1 [Compound 1] | – | – | inactive | – | –
2 | CC(C)NS(=O)(=O)c1ccc(N2C(=O)c3ccccc3C2=O)cc1 [Compound 2] | > 10 µM | > 10 µM | – | – | –
3 | CCN(CC)S(=O)(=O)c1ccc(N2C(=O)c3ccccc3C2=O)cc1 [Compound 5] | > 10 µM | > 10 µM | – | – | –
4 | O=C1c2ccccc2C(=O)N1c1ccc(S(=O)(=O)N2CCCCC2)cc1 [Compound 7] | > 10 µM | > 10 µM | – | – | –
5 | COc1ccc(NS(=O)(=O)c2ccc(N3C(=O)c4ccccc4C3=O)cc2)cc1 [Compound 12] | > 10 µM | > 10 µM | – | – | –
6 | O=C1c2ccccc2C(=O)N1c1ccc(S(=O)(=O)Nc2ccc(Cl)cc2)cc1 [Compound 15] | 7.5 µM | > 10 µM | – | showed hCA I inhibition; also recorded: inhibited hCA I | –
7 | Cc1ccccc1NS(=O)(=O)c1ccc(N2C(=O)c3ccccc3C2=O)cc1 [Compound 16] | > 10 µM | > 10 µM | – | – | –
8 | Cc1ccc(NS(=O)(=O)c2ccc(N3C(=O)c4ccccc4C3=O)cc2)cc1 [Compound 18] | > 10 µM | > 10 µM | – | – | –
9 | CCc1ccc(NS(=O)(=O)c2ccc(N3C(=O)c4ccccc4C3=O)cc2)cc1 [Compound 19] | > 10 µM | > 10 µM | potent dengue protease inhibitor | inactive | inactive
10 | O=C1c2ccccc2C(=O)N1c1ccc(S(=O)(=O)Nc2cccc([N+](=O)[O-])c2)cc1 [Compound 20] | > 10 µM | > 10 µM | – | – | –

Second part, led by results:

Row | Ki (hCA I) | Ki (hCA II) | Compound | dengue viral protease inhibition (in words) (dengue viral protease) | hCA I inhibition (in words) (hCA I) | hCA II inhibition (in words) (hCA II)
11 | 7.35 µM | – | O=C1c2ccccc2C(=O)N1c1ccc(S(=O)(=O)NCCc2ccccc2)cc1 [Compound 3] | – | showed hCA I inhibition; also recorded: inhibited hCA I | –
12 | > 10 µM | 9.06 µM | CN(C)S(=O)(=O)c1ccc(N2C(=O)c3ccccc3C2=O)cc1 [Compound 4] | – | – | showed hCA II inhibition at nanomolar concentrations; also recorded: inhibited hCA II
13 | > 10 µM | > 10 µM | O=C1c2ccccc2C(=O)N1c1ccc(S(=O)(=O)N(c2ccccc2)c2ccccc2)cc1 [Compound 6] | – | – | –
14 | > 10 µM | > 10 µM | CN1CCN(S(=O)(=O)c2ccc(N3C(=O)c4ccccc4C3=O)cc2)CC1 [Compound 8] | – | – | –
15 | > 10 µM | > 10 µM | O=C1c2ccccc2C(=O)N1c1ccc(S(=O)(=O)Nc2ccccc2)cc1 [Compound 9] | – | – | –
16 | 5.52 µM | 8.87 µM | O=C1c2ccccc2C(=O)N1c1ccc(S(=O)(=O)Nc2ccccc2O)cc1 [Compound 10] | – | showed hCA I inhibition; also recorded: inhibited hCA I | showed hCA II inhibition at nanomolar concentrations; also recorded: inhibited hCA II
17 | > 10 µM | > 10 µM | COc1cccc(NS(=O)(=O)c2ccc(N3C(=O)c4ccccc4C3=O)cc2)c1 [Compound 11] | – | – | –
18 | > 10 µM | > 10 µM | O=C1c2ccccc2C(=O)N1c1ccc(S(=O)(=O)Nc2ccccc2Cl)cc1 [Compound 13] | – | – | –
19 | > 10 µM | > 10 µM | O=C1c2ccccc2C(=O)N1c1ccc(S(=O)(=O)Nc2cccc(Cl)c2)cc1 [Compound 14] | – | – | –
20 | > 10 µM | > 10 µM | Cc1cccc(NS(=O)(=O)c2ccc(N3C(=O)c4ccccc4C3=O)cc2)c1 [Compound 17] | – | – | –
21 | > 10 µM | > 10 µM | O=C1c2ccccc2C(=O)N1c1ccc(S(=O)(=O)Nc2ccc([N+](=O)[O-])cc2)cc1 [Compound 21] | – | – | –
22 | > 10 µM | > 10 µM | O=C(O)c1ccc(NS(=O)(=O)c2ccc(N3C(=O)c4ccccc4C3=O)cc2)cc1 [Compound 22] | – | – | –
